In the CheMixHub viscosity set:
± gives the uncertainty stated by the source.

Assay: xn = mol fraction of the nth substance listed

**Q.** Which viscosity (298.15 K, 101 kPa, x1 = 0.0501) does the source give for `COc1ccccc1` + CO here?
**A.** Its viscosity is 0.586 ± 0.0059 mPa·s.

**Q.** What about the viscosity (298.15 K, 101 kPa, x1 = 0.1098) of the same molecule?
**A.** The viscosity was 0.623 ± 0.0063 mPa·s.

**Q.** What about the viscosity (298.15 K, 101 kPa, x1 = 0.1821) of the same molecule?
**A.** The viscosity was 0.662 ± 0.0066 mPa·s.

**Q.** And the viscosity (298.15 K, 101 kPa, x1 = 0.2706)?
**A.** The viscosity was 0.707 ± 0.0071 mPa·s.

**Q.** And the viscosity (298.15 K, 101 kPa, x1 = 0.3822)?
**A.** The viscosity was 0.756 ± 0.0076 mPa·s.

**Q.** What about the viscosity (298.15 K, 101 kPa, x1 = 0.5271) of the same molecule?
**A.** The viscosity was 0.809 ± 0.0081 mPa·s.

**Q.** And the viscosity (298.15 K, 101 kPa, x1 = 0.7214)?
**A.** Its viscosity is 0.886 ± 0.0089 mPa·s.

**Q.** And the viscosity (298.15 K, 101.33 kPa, x1 = 0.1024)?
**A.** The viscosity was 0.6111 ± 0.016 mPa·s.

**Q.** What about the viscosity (298.15 K, 101.33 kPa, x1 = 0.2039) of the same molecule?
**A.** Its viscosity is 0.67 ± 0.018 mPa·s.

**Q.** And the viscosity (298.15 K, 101.33 kPa, x1 = 0.2982)?
**A.** Its viscosity is 0.7131 ± 0.019 mPa·s.

**Q.** What about the viscosity (298.15 K, 101.33 kPa, x1 = 0.4027) of the same molecule?
**A.** The viscosity was 0.7591 ± 0.02 mPa·s.

**Q.** What about the viscosity (298.15 K, 101.33 kPa, x1 = 0.4998) of the same molecule?
**A.** The viscosity was 0.8009 ± 0.021 mPa·s.

**Q.** What about the viscosity (298.15 K, 101.33 kPa, x1 = 0.5991) of the same molecule?
**A.** The viscosity was 0.8271 ± 0.022 mPa·s.

**Q.** And the viscosity (298.15 K, 101.33 kPa, x1 = 0.7068)?
**A.** Its viscosity is 0.8651 ± 0.023 mPa·s.

**Q.** And the viscosity (298.15 K, 101.33 kPa, x1 = 0.8061)?
**A.** The viscosity was 0.8975 ± 0.024 mPa·s.

**Q.** And the viscosity (298.15 K, 101.33 kPa, x1 = 0.9023)?
**A.** Its viscosity is 0.9373 ± 0.025 mPa·s.

**Q.** And the viscosity (303 K, 101.3 kPa, x1 = 0.0499)?
**A.** The viscosity was 0.5675 ± 0.079 mPa·s.

**Q.** What about the viscosity (303 K, 101.3 kPa, x1 = 0.1091) of the same molecule?
**A.** Its viscosity is 0.6038 ± 0.083 mPa·s.

**Q.** And the viscosity (303 K, 101.3 kPa, x1 = 0.2686)?
**A.** Its viscosity is 0.6883 ± 0.093 mPa·s.

**Q.** And the viscosity (303 K, 101.3 kPa, x1 = 0.5242)?
**A.** Its viscosity is 0.7935 ± 0.1 mPa·s.

**Q.** What about the viscosity (303 K, 101.3 kPa, x1 = 0.7199) of the same molecule?
**A.** Its viscosity is 0.8751 ± 0.11 mPa·s.

**Q.** What about the viscosity (303.15 K, 101.33 kPa, x1 = 0.1024) of the same molecule?
**A.** Its viscosity is 0.574 ± 0.015 mPa·s.

**Q.** What about the viscosity (303.15 K, 101.33 kPa, x1 = 0.2039) of the same molecule?
**A.** Its viscosity is 0.6257 ± 0.017 mPa·s.

**Q.** What about the viscosity (303.15 K, 101.33 kPa, x1 = 0.2982) of the same molecule?
**A.** Its viscosity is 0.6672 ± 0.018 mPa·s.

**Q.** And the viscosity (303.15 K, 101.33 kPa, x1 = 0.4027)?
**A.** Its viscosity is 0.7035 ± 0.019 mPa·s.

**Q.** What about the viscosity (303.15 K, 101.33 kPa, x1 = 0.4998) of the same molecule?
**A.** The viscosity was 0.7455 ± 0.02 mPa·s.

**Q.** What about the viscosity (303.15 K, 101.33 kPa, x1 = 0.5991) of the same molecule?
**A.** The viscosity was 0.7718 ± 0.02 mPa·s.

**Q.** And the viscosity (303.15 K, 101.33 kPa, x1 = 0.7068)?
**A.** The viscosity was 0.8059 ± 0.021 mPa·s.

**Q.** What about the viscosity (303.15 K, 101.33 kPa, x1 = 0.8061) of the same molecule?
**A.** Its viscosity is 0.8374 ± 0.022 mPa·s.

**Q.** And the viscosity (303.15 K, 101.33 kPa, x1 = 0.9023)?
**A.** The viscosity was 0.8779 ± 0.023 mPa·s.

**Q.** And the viscosity (308.15 K, 101.33 kPa, x1 = 0.1024)?
**A.** The viscosity was 0.5506 ± 0.015 mPa·s.

**Q.** What about the viscosity (308.15 K, 101.33 kPa, x1 = 0.2039) of the same molecule?
**A.** The viscosity was 0.5983 ± 0.016 mPa·s.

**Q.** What about the viscosity (308.15 K, 101.33 kPa, x1 = 0.2982) of the same molecule?
**A.** The viscosity was 0.638 ± 0.017 mPa·s.

**Q.** And the viscosity (308.15 K, 101.33 kPa, x1 = 0.4027)?
**A.** The viscosity was 0.6731 ± 0.018 mPa·s.

**Q.** And the viscosity (308.15 K, 101.33 kPa, x1 = 0.4998)?
**A.** Its viscosity is 0.7065 ± 0.019 mPa·s.

**Q.** What about the viscosity (308.15 K, 101.33 kPa, x1 = 0.5991) of the same molecule?
**A.** The viscosity was 0.735 ± 0.019 mPa·s.

**Q.** And the viscosity (308.15 K, 101.33 kPa, x1 = 0.7068)?
**A.** Its viscosity is 0.7683 ± 0.02 mPa·s.

**Q.** What about the viscosity (308.15 K, 101.33 kPa, x1 = 0.8061) of the same molecule?
**A.** Its viscosity is 0.7978 ± 0.021 mPa·s.

**Q.** And the viscosity (308.15 K, 101.33 kPa, x1 = 0.9023)?
**A.** The viscosity was 0.8373 ± 0.022 mPa·s.

**Q.** What about the viscosity (313.15 K, 101.33 kPa, x1 = 0.1024) of the same molecule?
**A.** Its viscosity is 0.4934 ± 0.013 mPa·s.

**Q.** What about the viscosity (313.15 K, 101.33 kPa, x1 = 0.2039) of the same molecule?
**A.** Its viscosity is 0.5372 ± 0.014 mPa·s.

**Q.** And the viscosity (313.15 K, 101.33 kPa, x1 = 0.2982)?
**A.** The viscosity was 0.5706 ± 0.015 mPa·s.

**Q.** And the viscosity (313.15 K, 101.33 kPa, x1 = 0.4027)?
**A.** Its viscosity is 0.6023 ± 0.016 mPa·s.

**Q.** What about the viscosity (313.15 K, 101.33 kPa, x1 = 0.4998) of the same molecule?
**A.** Its viscosity is 0.6345 ± 0.017 mPa·s.

**Q.** And the viscosity (313.15 K, 101.33 kPa, x1 = 0.5991)?
**A.** Its viscosity is 0.6601 ± 0.017 mPa·s.

**Q.** And the viscosity (313.15 K, 101.33 kPa, x1 = 0.7068)?
**A.** The viscosity was 0.6865 ± 0.018 mPa·s.

**Q.** And the viscosity (313.15 K, 101.33 kPa, x1 = 0.8061)?
**A.** The viscosity was 0.7174 ± 0.019 mPa·s.

**Q.** And the viscosity (313.15 K, 101.33 kPa, x1 = 0.9023)?
**A.** Its viscosity is 0.751 ± 0.02 mPa·s.

**Q.** Which results are given for `CC1COC(=O)O1` (configuration not stated) + COC(=O)OC?
**A.** viscosity (298.15 K, 101.3 kPa, x2 = 0.0944): 2.217 ± 0.019 mPa·s; viscosity (298.15 K, 101.3 kPa, x2 = 0.1815): 1.965 ± 0.017 mPa·s; viscosity (298.15 K, 101.3 kPa, x2 = 0.3215): 1.618 ± 0.014 mPa·s; viscosity (298.15 K, 101.3 kPa, x2 = 0.4861): 1.287 ± 0.011 mPa·s; viscosity (298.15 K, 101.3 kPa, x2 = 0.5752): 1.138 ± 0.01 mPa·s; viscosity (298.15 K, 101.3 kPa, x2 = 0.6827): 0.98 ± 0.008 mPa·s; viscosity (298.15 K, 101.3 kPa, x2 = 0.7254): 0.924 ± 0.008 mPa·s; viscosity (298.15 K, 101.3 kPa, x2 = 0.7801): 0.856 ± 0.007 mPa·s; viscosity (298.15 K, 101.3 kPa, x2 = 0.9012): 0.724 ± 0.006 mPa·s

**Q.** What does the source list for `Brc1ccc2[n-]cnc2c1.CCCCCCCCCCCCCC[P+](CCCCCC)(CCCCCC)CCCCCC` + COCCOCCOCCOCCOC?
**A.** viscosity (293.15 K, 100 kPa, x1 = 0.362): 62 ± 1 mPa·s; viscosity (293.15 K, 100 kPa, x1 = 0.522): 164 ± 5 mPa·s; viscosity (293.15 K, 100 kPa, x1 = 0.654): 301 ± 12 mPa·s; viscosity (293.15 K, 100 kPa, x1 = 0.782): 631 ± 34 mPa·s; viscosity (293.15 K, 100 kPa, x1 = 0.862): 972 ± 60 mPa·s; viscosity (293.15 K, 100 kPa, x1 = 0.898): 1190 ± 79 mPa·s; viscosity (298.15 K, 100 kPa, x1 = 0.522): 125 ± 3 mPa·s; viscosity (298.15 K, 100 kPa, x1 = 0.654): 222 ± 7 mPa·s; viscosity (298.15 K, 100 kPa, x1 = 0.782): 449 ± 21 mPa·s; viscosity (298.15 K, 100 kPa, x1 = 0.862): 675 ± 37 mPa·s; viscosity (298.15 K, 100 kPa, x1 = 0.898): 813 ± 48 mPa·s; viscosity (303.15 K, 100 kPa, x1 = 0.522): 98 ± 2 mPa·s; viscosity (303.15 K, 100 kPa, x1 = 0.654): 167 ± 5 mPa·s; viscosity (303.15 K, 100 kPa, x1 = 0.782): 326 ± 13 mPa·s; viscosity (303.15 K, 100 kPa, x1 = 0.862): 481 ± 23 mPa·s; viscosity (303.15 K, 100 kPa, x1 = 0.898): 572 ± 29 mPa·s; viscosity (308.15 K, 100 kPa, x1 = 0.522): 77 ± 1 mPa·s; viscosity (308.15 K, 100 kPa, x1 = 0.654): 129 ± 3 mPa·s; viscosity (308.15 K, 100 kPa, x1 = 0.782): 243 ± 8 mPa·s; viscosity (308.15 K, 100 kPa, x1 = 0.862): 351 ± 15 mPa·s; viscosity (308.15 K, 100 kPa, x1 = 0.898): 413 ± 19 mPa·s; viscosity (313.15 K, 100 kPa, x1 = 0.522): 63 ± 1 mPa·s; viscosity (313.15 K, 100 kPa, x1 = 0.654): 101 ± 2 mPa·s; viscosity (313.15 K, 100 kPa, x1 = 0.782): 185 ± 5 mPa·s; viscosity (313.15 K, 100 kPa, x1 = 0.862): 261 ± 9 mPa·s; viscosity (313.15 K, 100 kPa, x1 = 0.898): 304 ± 12 mPa·s; viscosity (318.15 K, 100 kPa, x1 = 0.522): 51 ± 1 mPa·s; viscosity (318.15 K, 100 kPa, x1 = 0.654): 81 ± 1 mPa·s; viscosity (318.15 K, 100 kPa, x1 = 0.782): 143 ± 3 mPa·s; viscosity (318.15 K, 100 kPa, x1 = 0.862): 199 ± 6 mPa·s; viscosity (318.15 K, 100 kPa, x1 = 0.898): 230 ± 8 mPa·s; viscosity (323.15 K, 100 kPa, x1 = 0.654): 66 ± 1 mPa·s; viscosity (323.15 K, 100 kPa, x1 = 0.782): 114 ± 2 mPa·s; viscosity (323.15 K, 100 kPa, x1 = 0.862): 155 ± 4 mPa·s; viscosity (323.15 K, 100 kPa, x1 = 0.898): 177 ± 5 mPa·s
